US4906565A, “Method for the selective detection of microbial nucleotides” (Minnesota Mining and Manufacturing Company, priority 1986, dated 1990)
Several values for one entry are separate records, joined by “and”; a condition that tells them apart may be missing. Identical values can stand only once.

What was measured:
Assay type in all cases: biochemical
[1] = tested on: glycerokinase; experiment: Inhibition of glycerokinase (protection of ATP), bioluminescent ATP assay in buffer; details: for RLU 5 min.: 5 min. after glycerol; for RLU 10 min.: 10 min. after glycerol; for RLU 15 min.: 15 min. after glycerol; for RLU 0 min.: before glycerol added
Procedure: Assay: Glycerol was added last to the samples to initiate the enzyme's activity. Before glycerol was added a 50 μl aliquot was taken from all samples. ATP levels in those aliquots (expressed in RLU) were determined as time zero values. Next glycerol was added to the mixtures and further 50 μl aliquots were taken at 5, 10, and 15 minutes. ATP in all aliquots was measured by bioluminescent means as described. Results:
(§1) Assay: Glycerol was added last to the samples to initiate the enzyme's activity. Before glycerol was added a 50 μl aliquot was taken from all samples as time zero. Next glycerol was added to the samples and after 5, 10 and 15 minutes, 50 μl aliquots were again taken. ATP in all aliquots was measured as described.
as §1, with “At” for “Next glycerol was added to the samples and after”, “minutes after addition of glycerol further” for “minutes,”, “taken from the samples.” for “again taken.”

[2] = molecular target: T1, firefly luciferase (Photinus pyralis, UniProt P08659); experiment: Effect of inhibitor on the bioluminescent assay of ATP
T1 construct: purchased Lumac/3M Lumit PM
Procedure: Assay: from each sample triplicate 100 μl aliquots were taken. In those aliquots ATP was measured as described.
Assay: from each sample triplicate 100 μl aliquots were taken. ATP in those aliquots was measured as described.
Assay: From each sample triplicate 100 μl aliquots were taken and ATP was measured as described.
Protocol: Eight samples were prepared using materials described above and previously, as shown in TABLE 7-1 and incubated for various periods of time (i.e., 0, 5, 10 and […]) before aliquots were taken and assayed as described.
Protocol: Increasing concentrations of hexokinase, with and without PCMPSA were prepared according to TABLE 8-1 using materials described above and previously.

[3] = molecular target: T1, firefly luciferase; experiment: as above; details: for RLU mean / RLU, triplicate aliquots 1, 2, 3: no kinase
[4] = DNFB 0.0827 mM, ATP in Lumit buffer
[5] = DNFB 0.827 mM, ATP in Lumit buffer
[6] = DNFB 8.27 mM, ATP in Lumit buffer
[7] = PCMB 0.01 mM, glycerokinase 1.6 U/ml
[8] = PCMB 0.05 mM, glycerokinase 1.6 U/ml
[9] = PCMB 0.1 mM, glycerokinase 1.6 U/ml
[10] = PCMB 0.5 mM, glycerokinase 1.6 U/ml
[11] = PCMB 1 mM, glycerokinase 1.6 U/ml
[12] = PCMB 2 mM, glycerokinase 1.6 U/ml
[13] = PCMB 0.01 mM, ATP in buffer, no kinase

T1 sequence (P08659 whole entry): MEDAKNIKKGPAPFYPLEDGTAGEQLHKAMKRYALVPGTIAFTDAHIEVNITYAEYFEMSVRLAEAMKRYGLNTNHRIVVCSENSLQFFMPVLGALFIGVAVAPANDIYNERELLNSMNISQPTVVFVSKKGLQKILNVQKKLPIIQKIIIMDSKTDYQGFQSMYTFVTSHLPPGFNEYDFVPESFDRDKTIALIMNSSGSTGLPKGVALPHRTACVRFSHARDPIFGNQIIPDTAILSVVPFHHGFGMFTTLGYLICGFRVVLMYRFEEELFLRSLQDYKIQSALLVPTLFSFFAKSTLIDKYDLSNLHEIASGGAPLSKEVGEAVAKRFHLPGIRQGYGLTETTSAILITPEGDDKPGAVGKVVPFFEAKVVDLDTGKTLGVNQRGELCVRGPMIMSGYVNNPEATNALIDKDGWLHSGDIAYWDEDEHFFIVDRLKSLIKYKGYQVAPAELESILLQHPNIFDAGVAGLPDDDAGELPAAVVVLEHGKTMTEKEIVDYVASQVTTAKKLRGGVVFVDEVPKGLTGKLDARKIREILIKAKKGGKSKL

CCN1C(=O)C=CC1=O [NEM, N-ethylmaleimide]
RLU 5 min. ([1]; NEM 4.10 mM, glycerokinase): 7275 RLU
RLU 10 min. ([1]; NEM 4.10 mM, glycerokinase): 6398 RLU
RLU 15 min. ([1]; NEM 4.10 mM, glycerokinase): 5922 RLU
RLU 0 min. ([1]; NEM 4.10 mM, glycerokinase): 7635 RLU
RLU 5 min. ([1]; NEM 8.14 mM, glycerokinase): 7130 RLU
RLU 10 min. ([1]; NEM 8.14 mM, glycerokinase): 6623 RLU
RLU 15 min. ([1]; NEM 8.14 mM, glycerokinase): 6365 RLU
RLU 0 min. ([1]; NEM 8.14 mM, glycerokinase): 7742 RLU
RLU 5 min. ([1]; NEM 12.1 mM, glycerokinase): 7413 RLU
RLU 10 min. ([1]; NEM 12.1 mM, glycerokinase): 6812 RLU
RLU 15 min. ([1]; NEM 12.1 mM, glycerokinase): 6997 RLU
RLU 0 min. ([1]; NEM 12.1 mM, glycerokinase): 7660 RLU
RLU 5 min. ([1]; NEM 19.8 mM, glycerokinase): 7138 RLU
RLU 10 min. ([1]; NEM 19.8 mM, glycerokinase): 6547 RLU
RLU 15 min. ([1]; NEM 19.8 mM, glycerokinase): 6820 RLU
RLU 0 min. ([1]; NEM 19.8 mM, glycerokinase): 7406 RLU
RLU 5 min. ([1]; NEM 16. mM, glycerokinase): 7192 RLU
RLU 10 min. ([1]; NEM 16. mM, glycerokinase): 7002 RLU
RLU 15 min. ([1]; NEM 16. mM, glycerokinase): 6962 RLU
RLU 0 min. ([1]; NEM 16. mM, glycerokinase): 7199 RLU
inhibition of glycerokinase (conclusion in words) ([1]; each NEM concentration tested (4.10-19.8 mM)): seems to be inhibited
% of control ([2]; NEM 19.8 mM, control = 0 mM NEM): 86.3%
RLU mean ([3]; NEM 4.10 mM, ATP in buffer): 14410 RLU
RLU, triplicate aliquots 1, 2, 3 ([3]; NEM 4.10 mM, ATP in buffer): 14387 RLU and 14794 RLU and 14051 RLU
% of control ([3]; NEM 4.10 mM, control = 0 mM NEM): 97.6%
RLU mean ([3]; NEM 8.14 mM, ATP in buffer): 14608 RLU
RLU, triplicate aliquots 1, 2, 3 ([3]; NEM 8.14 mM, ATP in buffer): 14401 RLU and 14667 RLU and 14756 RLU
% of control ([3]; NEM 8.14 mM, control = 0 mM NEM): 99.0%
RLU mean ([3]; NEM 12.1 mM, ATP in buffer): 13737 RLU
RLU, triplicate aliquots 1, 2, 3 ([3]; NEM 12.1 mM, ATP in buffer): 14139 RLU and 13794 RLU and 13279 RLU
% of control ([3]; NEM 12.1 mM, control = 0 mM NEM): 93.1%
RLU mean ([3]; NEM 16.0 mM, ATP in buffer): 13212 RLU
RLU, triplicate aliquots 1, 2, 3 ([3]; NEM 16.0 mM, ATP in buffer): 12750 RLU and 13438 RLU and 13448 RLU
% of control ([3]; NEM 16.0 mM, control = 0 mM NEM): 89.5%
RLU mean ([3]; NEM 19.8 mM, ATP in buffer): 12747 RLU
RLU, triplicate aliquots 1, 2, 3 ([3]; NEM 19.8 mM, ATP in buffer): 13534 RLU and 12596 RLU and 12111 RLU
RLU mean ([3]; NEM .414 mM, ATP in buffer): 14962 RLU
RLU, triplicate aliquots 1, 2, 3 ([3]; NEM .414 mM, ATP in buffer): 15071 RLU and 15081 RLU and 14735 RLU
% of control ([3]; NEM .414 mM, control = 0 mM NEM): 101.4%
interference with the bioluminescent assay of ATP (conclusion in words) ([3]; NEM concentrations of Example 5): interferes only moderately, if at all

O=[N+]([O-])c1ccc(F)c([N+](=O)[O-])c1 [DNFB]
inhibition of glycerokinase (conclusion in words) ([1]; 0.0827 mM DNFB): not effectively inhibited
inhibition of glycerokinase (conclusion in words) ([1]; 0.27 mM DNFB (so in the source)): effectively inhibited
inhibition of glycerokinase (conclusion in words) ([1]; 8.27 mM DNFB (so in the source)): moderately inhibited
RLU 5 min. ([1]; DNFB 0.0827 mM, glycerokinase): 11 RLU
RLU 10 min. ([1]; DNFB 0.0827 mM, glycerokinase): 11 RLU
RLU 15 min. ([1]; DNFB 0.0827 mM, glycerokinase): 18 RLU
RLU 0 min. ([1]; DNFB 0.0827 mM, glycerokinase): 7025 RLU
RLU 5 min. ([1]; DNFB 0.827 mM, glycerokinase): 1585 RLU
RLU 10 min. ([1]; DNFB 0.827 mM, glycerokinase): 1498 RLU
RLU 15 min. ([1]; DNFB 0.827 mM, glycerokinase): 1618 RLU
RLU 0 min. ([1]; DNFB 0.827 mM, glycerokinase): 7402 RLU
RLU 5 min. ([1]; DNFB 8.27 mM, glycerokinase): 7785 RLU
RLU 10 min. ([1]; DNFB 8.27 mM, glycerokinase): 7965 RLU
RLU 15 min. ([1]; DNFB 8.27 mM, glycerokinase): 7968 RLU
RLU 0 min. ([1]; DNFB 8.27 mM, glycerokinase): 8002 RLU
% of control ([2]; DNFB 0.0827 mM, control = ethanol, 0 mM DNFB): 106%
interference with the bioluminescent assay of ATP by firefly luciferase (conclusion in words) ([2]; DNFB concentrations of Example 3): does not interfere
RLU mean [3, 4]: 15429 RLU
RLU, triplicate aliquots 1, 2, 3 [3, 4]: 15157 RLU and 15625 RLU and 15507 RLU
RLU mean [3, 5]: 15914 RLU
RLU, triplicate aliquots 1, 2, 3 [3, 5]: 16060 RLU and 15753 RLU and 15929 RLU
% of control ([3]; DNFB 0.827 mM, control = ethanol, 0 mM DNFB): 110%
RLU mean [3, 6]: 14784 RLU
RLU, triplicate aliquots 1, 2, 3 [3, 6]: 14498 RLU and 14780 RLU and 15076 RLU
% of control ([3]; DNFB 8.27 mM, control = ethanol, 0 mM DNFB): 102.2%

O=C(O)c1cc[c]([Hg][Cl])cc1 [PCMB, p-chloromercuribenzoic acid]
RLU 5 min. [1, 7]: 9121 RLU
RLU 10 min. [1, 7]: 8982 RLU
RLU 15 min. [1, 7]: 3913 RLU
RLU 0 min. [1, 7]: 9065 RLU
RLU 5 min. [1, 8]: 9048 RLU
RLU 10 min. [1, 8]: 8727 RLU
RLU 15 min. [1, 8]: 9049 RLU
RLU 0 min. [1, 8]: 9003 RLU
RLU 5 min. [1, 9]: 9560 RLU
RLU 10 min. [1, 9]: 9253 RLU
RLU 15 min. [1, 9]: 9421 RLU
RLU 0 min. [1, 9]: 9499 RLU
RLU 5 min. [1, 10]: 8800 RLU
RLU 10 min. [1, 10]: 8617 RLU
RLU 15 min. [1, 10]: 9028 RLU
RLU 0 min. [1, 10]: 9041 RLU
RLU 5 min. [1, 11]: 9437 RLU
RLU 10 min. [1, 11]: 9329 RLU
RLU 15 min. [1, 11]: 9591 RLU
RLU 0 min. [1, 11]: 8802 RLU
RLU 5 min. [1, 12]: 7245 RLU
RLU 10 min. [1, 12]: 7905 RLU
RLU 15 min. [1, 12]: 7568 RLU
RLU 0 min. [1, 12]: 7987 RLU
inhibition of glycerokinase (conclusion in words) ([1]; PCMB final concentration 0.01 mM): sufficiently inhibited
inhibition of glycerokinase (conclusion in words) ([1]; PCMB, Samples 1-6 (0.01-2 mM)): very effective inhibitor of glycerokinase
RLU mean [2, 13]: 17887 RLU
RLU, triplicate aliquots 1, 2, 3 [2, 13]: 17959 RLU and 18219 RLU and 17484 RLU
% of control ([2]; PCMB 0.01 mM, control = 0 mM PCMB): 97%
interference with the bioluminescent assay (conclusion in words) ([2]; PCMB 0.01-1mM): do not significantly interfere
RLU, triplicate aliquots 1, 2, 3 ([2]; PCMB 10 mM, ATP in buffer, no kinase): 11 RLU and 10 RLU
RLU mean ([3]; PCMB 0.05 mM, ATP in buffer): 17508 RLU
RLU, triplicate aliquots 1, 2, 3 ([3]; PCMB 0.05 mM, ATP in buffer): 17984 RLU and 17423 RLU and 17118 RLU
% of control ([3]; PCMB 0.05 mM, control = 0 mM PCMB): 95%
RLU mean ([3]; PCMB 0.1 mM, ATP in buffer): 18246 RLU
RLU, triplicate aliquots 1, 2, 3 ([3]; PCMB 0.1 mM, ATP in buffer): 17914 RLU and 18720 RLU and 18505 RLU
% of control ([3]; PCMB 0.1 mM, control = 0 mM PCMB): 99%
RLU mean ([3]; PCMB 0.5 mM, ATP in buffer): 18142 RLU
RLU, triplicate aliquots 1, 2, 3 ([3]; PCMB 0.5 mM, ATP in buffer): 18190 RLU and 18413 RLU and 17824 RLU
% of control ([3]; PCMB 0.5 mM, control = 0 mM PCMB): 99%
RLU mean ([3]; PCMB 1 mM, ATP in buffer): 13696 RLU
RLU, triplicate aliquots 1, 2, 3 ([3]; PCMB 1 mM, ATP in buffer): 14576 RLU and 13556 RLU and 12956 RLU
% of control ([3]; PCMB 1 mM, control = 0 mM PCMB): 75%
RLU mean ([3]; PCMB 5 mM, ATP in buffer): 10 RLU
RLU, triplicate aliquots 1, 2, 3 ([3]; PCMB 5 mM, ATP in buffer): 11 RLU and 10 RLU and 9 RLU
% of control ([3]; PCMB 5 mM, control = 0 mM PCMB): < 1%
RLU mean ([3]; PCMB 10 mM, ATP in buffer): 10 RLU
% of control ([3]; PCMB 10 mM, control = 0 mM PCMB): < 1%
